Experimental data taken from publication PMC12386934, “Characteristics and Potential of KSL, KSL-W, and Dadapin-1 Antimicrobial Peptides for Preventing Infections of Orthopedic Prosthetic Devices: Identifying the Most Robust Candidate” (International Journal of Molecular Sciences, 2025).
Values after ≈ are worked out from the molar mass of the structure shown. Where a SMILES comes first, the peptide text is derived from it.

Assays:
Format in all cases: cell-based
[1] = test system: E. faecalis cra4024 (EF 01)
Excerpt: (§1) The experimental scheme reported in Figure 6 helped to simplify and optimize the in vitro testing of the antibacterial activity of the different AMPs. The initial transparent microtiter plate for the determination of the minimum inhibitory concentration (MIC) by optical density (OD) measurement was conveniently used as a starting point not only for the alterative determination of the MIC by luminescence but also for the minimum bactericidal concentration (MBC) and for the minimum biofilm inhibitory concentration (MBIC), as explained below. For every test peptide, at least three independent experiments were performed on each bacterial strain per test condition (100% MHB and 20% MHB). The sole exception to this rule was when MIC values were on rare occasions found to be greater than 500 µg/mL. Under these circumstances, two consecutive experiments were performed to confirm the results. In this case, the antibacterial activity was considered insignificant and the third experiment was generally considered unnecessary.
(§2) The antibacterial properties of the test AMPs were assayed under two distinct conditions of bacterial culture: (i) with bacteria cultured in undiluted Mueller–Hinton II Broth (MHB II) and (ii) with bacteria cultured in diluted MHB II as earlier described in Campoccia et al.. Briefly, a few colonies of each bacterial strain, taken from overnight cultures on Mueller–Hinton Agar plates (MHA, PO50007A, ThermoScientific, Thermo Fisher Scientific, Segrate, Italy), were resuspended in Mueller–Hinton II Broth (MHB II, 24107, Liofilchem, Roseto degli Abruzzi, Italy), either undiluted or at a 20% dilution in deionized water. The concentration of bacteria was adjusted to approximately 10^8 CFU/mL, as estimated by optical density reading at 625 nm, using a Hewlett Packard G1103A spectrophotometer (Waldbronn, Germany). The bacterial suspension was further diluted 1:100 in 100% or 20% MHB II.
(§3) Serial 1:2 dilutions of all the test peptides were prepared in sterile deionized water starting from a stock solution of 1 mg/mL. Microtiter plates (96-Well CytoOne® Plate, CC7672-7596, Starlab S.r.l., Milano, Italy) were prepared by adding a volume of 100 µL of inoculum to 100 µL of treatment. Each AMP dilution was assayed in triplicate; each microplate included triplicate wells for the blank (100 µL of sterile distilled water and 100 µL of sterile MHB II), and 3 to 6 wells for reference control of 100% growth (100 µL of sterile deionized water and 100 µL of MHB II inoculated with the bacterium). Positive controls were performed in triplicate wells with 100 µL of a 10 mg/mL gentamicin solution (G1272, Sigma Aldrich, Milan, Italy) and with 100 µL of a solution containing 10,000 units/mL of penicillin and 10,000 µg/mL of streptomycin (penicillin–streptomycin, 15140-122, Life Technologies, Monza, Italy).
(§4) The wells of the microplate, initially used for the determination of the MIC, were rinsed twice with 220 µL of phosphate-buffered solution (PBS) to remove loosely attached and planktonic bacteria. A total of 100 µL of fresh PBS and 100 µL of Bac-Titer Glo solution (G8231, Promega Italia S.r.l., Milan, Italy) were added to each well. After a 10 min incubation, a volume of 100 µL was transferred to a new microplate for luminescence determination as described above. As a general rule, the MBIC value was identified as the concentration at which a reduction of at least a log in the metabolic activity was observed.

[2] = test system: S. epidermidis cra4029 (SE 02)
Excerpt: as §1, §2, §3, §4

[3] = test system: S. aureus ATCC 25923 (SA 00); settings: ATCC 25923, 24 h
Excerpt: as §1, §2, §3, §4

[4] = test system: S. epidermidis cra4034 (SE 01); settings: cra4034 (SE 01, 24 h)
Excerpt: as §1, §2, §3, §4

E. coli cra4038 (EC) [5] = settings: for LR, Log10 reduction in bacterial metabolism for a given MBIC: cra4038 (EC)
Excerpt: as §1, §2, §3, §4

[6] = test system: P. aeruginosa cra3840 (PA 02); settings: for MBIC: cra3840 (PA 02, 24 h)
Excerpt: as §1, §2, §3, §4

[7] = test system: S. aureus cra4030 (SA 01); settings: for MBIC: cra4030 (SA 01, 24 h)
Excerpt: as §1, §2, §3, §4

[8] = test system: S. aureus cra2198 (SA 02); settings: cra2198 (SA 02, 24 h)
Excerpt: as §1, §2, §3, §4

[9] = test system: E. faecalis cra4024 (EF 01); remark: listed apart in the source
Excerpt: as §1, §2, §3
(§5) After a 1-day incubation at 37 °C, the MIC was determined by two distinct methods: (1) optical density measurement and (2) bioluminescence reading. In the first case, the optical density of the microtiter plates was read directly at a wavelength of 600 nm and the MIC was estimated from the curves obtained by plotting the OD measurements. For the bioluminescence reading, after gentle resuspension, 100 µL of each treated culture was transferred to a new 96-well non-treated plate (236105/237105, Life Technologies, Monza, Italy) and the metabolic activity was determined by the kit Bac-Titer Glo Microbial Cell Viability Assay (G8231, Promega Italia S.r.l, Milan, Italy). Optical density and bioluminescence were read by a Modulus II multifunction plate reader (Turner BioSystems, Sunnyvale, CA, USA) or, alternatively, by an Infinite M Plex (Tecan Group Ltd., Männedorf, Switzerland). As earlier described in [24], in the case of luminescence, the MIC was identified from the curves of growth inhibition as the first concentration leading to a 1-log reduction in bacterial growth (i.e., 90% growth inhibition). […]

[10] = test system: S. epidermidis cra4029 (SE 02); remark: listed apart in the source
Excerpt: as §1, §2, §3, §5

[11] = test system: E. faecalis cra4033 (EF 02)
Excerpt: as §1, §2, §3, §5

[12] = test system: S. aureus cra2198 (SA 02)
Excerpt: as §1, §2, §3, §5

[13] = test system: S. epidermidis cra4029 (SE 02); remark: listed apart in the source
Excerpt: as §1
as §2, with “II. […]” for “II.”
(§6) For assessing the MBC, 10 μL of bacterial suspensions was taken from wells corresponding to MIC, 2× MIC, and 4× MIC and then plated on MHA plates. […] The MBC was determined as the lowest dilution causing absence of bacterial colonies growth on the plate.
(§7) In order to assess the extent of the interference of the culture medium composition with the antibacterial activity of the three peptides, a “Rate of Abatement” of the bactericidal properties (RoA) was calculated using the following formula (Equation (1)):RoA = MBCMHB/MBC20% MHB(1)
(§8) RoA indicates the fold increases in the MBC when tested in undiluted medium […], i.e., with maximal interference of broth polyanionic substances, with respect to diluted medium […]. […] A more versatile measure to express the loss of activity was calculated as follows. […]

[14] = test system: E. faecalis cra4033 (EF 02); remark: listed apart in the source
Excerpt: as §1
as §2, with “II. […]” for “II.”
as §6, §7, §8

E. coli cra4038 (EC) [15] = test system: E. coli cra4038 (EC)
Excerpt: as §1
as §2, with “II. […]” for “II.”
as §6, §7, §8

entire panel of strains = assay: MBC, all strains of the panel; settings: undiluted MHB II, re-tested plating 10 μL
Method: For assessing the MBC, 10 μL of bacterial suspensions was taken from wells corresponding to MIC, 2× MIC, and 4× MIC and then plated on MHA plates. After one day of incubation at 37 °C, the agar plates were examined for bacterial growth. The MBC was determined as the lowest dilution causing absence of bacterial colonies growth on the plate.

[16] = test system: P. aeruginosa cra4004 (PA 01)
Excerpt: as §1, §2, §3, §4

[17] = test system: E. faecalis cra4033 (EF 02); remark: listed apart in the source
Excerpt: as §1, §2, §3, §4

[18] = test system: P. aeruginosa cra4004 (PA 01); remark: listed apart in the source
Excerpt: as §1, §2, §3, §5

[19] = test system: P. aeruginosa cra3840 (PA 02)
Excerpt: as §1, §2, §3, §5

With `CC(C)C[C@H](NC(=O)CN)C(=O)N[C@@H](CC(C)C)C(=O)N[C@@H](CCCNC(=N)N)C(=O)N[C@@H](C)C(=O)N[C@@H](CO)C(=O)N[C@@H](CO)C(=O)N[C@@H](CCCCN)C(=O)N[C@@H](Cc1c[nH]c2ccccc12)C(=O)NCC(=O)N[C@@H](CCCNC(=N)N)C(=O)N[C@@H](CCCCN)C(=O)N[C@@H](Cc1ccc(O)cc1)C(=O)N[C@@H](Cc1ccc(O)cc1)C(=O)N[C@H](C(=O)N[C@@H](CC(=O)O)C(=O)N[C@@H](CC(C)C)C(=O)N[C@@H](C)C(=O)NCC(=O)N[C@@H](CS)C(=O)N[C@@H](C)C(=O)N[C@@H](CCCCN)C(=O)N[C@@H](C)C(=O)O)C(C)C` [Dadapin-1] (H-GLLRASSKWGRKYYVDLAGCAKA-OH) the “LR, Log10 reduction in bacterial metabolism for a given MBIC” value (“LR, Log10 reduction” for short) ([1]; cra4024 (EF 01)) was 3 LR, the MBIC ([1]; cra4024 (EF 01, 24 h)) was >500 µg/mL and the MBIC ([2]; cra4029 (SE 02, 24 h)) was > 500 µg/mL. For the same molecule, the MBIC [3] was 250 to 500 µg/mL, the MBIC [4] was 3.91 to 7.81 µg/mL and the “LR, Log10 reduction” value (E. coli cra4038 (EC) [5]) was 2 LR. The MBIC (E. coli cra4038 (EC) [5]; cra4038 (EC, 24 h)) was 15.63–31.25 (31.25) 2LR: 31.25 μg/mL, the “LR, Log10 reduction” value ([6]; cra3840 (PA 02)) was 3 LR and the MBIC [6] was >500 µg/mL. For the same molecule, the MBIC [7] was 7.81 to 15.63 µg/mL, the MBIC [8] was 500 µg/mL and the MIC [9] was >500 µg/mL. The MIC [10] was > 500 µg/mL, the MIC [11] was >500 µg/mL and the MIC [12] was 15.63 µg/mL (≈ 6.22 µM). For the same molecule, the MBC [13] was 15.63 µg/mL (≈ 6.22 µM), the MBC [14] was >500 µg/mL and the MBC (E. coli cra4038 (EC) [15]) was 31.25 to 62.5 µg/mL. The MBC (entire panel of strains) was “exceeded 500 μg/mL”.
With `CC(C)[C@H](NC(=O)[C@H](CCCCN)NC(=O)[C@H](Cc1ccccc1)NC(=O)[C@@H](NC(=O)[C@@H](NC(=O)[C@H](CCCCN)NC(=O)[C@@H](N)CCCCN)C(C)C)C(C)C)C(=O)N[C@@H](CCCCN)C(=O)N[C@@H](Cc1ccccc1)C(=O)N[C@@H](CCCCN)C(=O)O` [KSL] (H-KKVVFKVKFK-OH) the “LR, Log10 reduction” value ([2]; cra4029 (SE 02)) was 2 LR, the “LR, Log10 reduction” value [16] was 3 LR and the “LR, Log10 reduction” value ([17]; cra4033 (EF 02)) was 2 LR. For the same molecule, the MBIC ([17]; cra4033 (EF 02, 24 h)) was 250 µg/mL, the “LR, Log10 reduction” value (E. coli cra4038 (EC) [5]) was 3 LR and the MBIC [6] was 3.91 µg/mL. For the same molecule, the “LR, Log10 reduction” value ([7]; cra4030 (SA 01)) was 2 LR, the MBIC [7] was 1.95 µg/mL and the MBIC [8] was 31.25 µg/mL. It also gave an MIC [18] of 3.91 µg/mL (≈ 3.13 µM) and an MIC [19] of 3.91 µg/mL (≈ 3.13 µM).
